The target of data set [1] is T1, NACHT, LRR and PYD domains-containing protein 3 (Homo sapiens, UniProt Q96P20). Kind of data set: Inhibition of NLRP3 inflammasome in LPS-pretreated PBMC (unknown origin) assessed as reduction in IL-1beta release pretreated for 30 mins followed by ATP stimulated and measured after 1 hr by ELISA. It counts as cell-based. Background: In an ELISA, binding on a coated surface is turned into a signal by an enzyme label.

Data set [2] in a line: Permeability of compound in pH 7.4 phosphate buffered saline at 10 uM measured after 4 hrs by PAMPA. The data set is classed as ADME. The conditions noted are these: read-out: permeability. Background: The PAMPA barrier holds no transporters, so it reflects passive diffusion.
The nature of data set [3]: Thermodynamic solubility of compound in pH 7.4 phosphate buffer incubated for 24 hrs under shaking condition by UPLC analysis. The data set is classed as physicochemical. The conditions noted are these: read-out: Therm_solubility.
The nature of data set [4]: Protein binding in human plasma. The data set is classed as ADME, cell-free. The conditions noted are these: read-out: PPB (converted).
Data set [5] can be described thus: Inhibition of LPS-stimulated IL-6 release in human PBMC measured after 4 hrs by ELISA. It counts as toxicity, cell-based.
Data set [6] in a line: Inhibition of LPS-stimulated TNF-alpha release in human PBMC measured after 4 hrs by ELISA. The data set is classed as toxicity, cell-based.
The nature of data set [7]: Protein binding in mouse plasma. It counts as ADME, cell-free. The conditions noted are these: read-out: PPB (converted).
Data set [8] has as its target T1, NACHT, LRR and PYD domains-containing protein 3. Kind of data set: Inhibition of NLRP3 inflammasome in LPS-pretreated human whole blood assessed as reduction in IL-1beta release pretreated for 30 mins followed by ATP stimulated and measured after 1 hr by HTRF assay. It counts as tissue-based. For orientation: In TR-FRET formats the signal depends on donor and acceptor labels being close together.

For data set [9] the target is unchanged. Kind of data set: Inhibition of NLRP3 inflammasome in LPS-pretreated human THP1-ASC-GFP cells assessed as reduction in speck positive cells measured after 30 mins in presence of caspase inhibitor zVAD-FMK by Hoechst 33342 staining based confocal microscopy. The data set is classed as cell-based.
Data set [10] shares this target. The experiment in a line: Inhibition of NLRP3 inflammasome in LPS-pretreated PBMC (unknown origin) assessed as reduction in IL-1beta release at 40 uM pretreated for 30 mins followed by ATP stimulated and measured after 1 hr by ELISA relative to control. The data set is classed as cell-based. Particulars: time 90.0 min.
Data set [11] in a line: Protein binding in rat plasma. Particulars: read-out: PPB (converted). The data set is classed as ADME, cell-free.

In brackets after ≈: the same amount, converted by molar mass.

T1 sequence (Q96P20 whole entry, the tested form may be a part): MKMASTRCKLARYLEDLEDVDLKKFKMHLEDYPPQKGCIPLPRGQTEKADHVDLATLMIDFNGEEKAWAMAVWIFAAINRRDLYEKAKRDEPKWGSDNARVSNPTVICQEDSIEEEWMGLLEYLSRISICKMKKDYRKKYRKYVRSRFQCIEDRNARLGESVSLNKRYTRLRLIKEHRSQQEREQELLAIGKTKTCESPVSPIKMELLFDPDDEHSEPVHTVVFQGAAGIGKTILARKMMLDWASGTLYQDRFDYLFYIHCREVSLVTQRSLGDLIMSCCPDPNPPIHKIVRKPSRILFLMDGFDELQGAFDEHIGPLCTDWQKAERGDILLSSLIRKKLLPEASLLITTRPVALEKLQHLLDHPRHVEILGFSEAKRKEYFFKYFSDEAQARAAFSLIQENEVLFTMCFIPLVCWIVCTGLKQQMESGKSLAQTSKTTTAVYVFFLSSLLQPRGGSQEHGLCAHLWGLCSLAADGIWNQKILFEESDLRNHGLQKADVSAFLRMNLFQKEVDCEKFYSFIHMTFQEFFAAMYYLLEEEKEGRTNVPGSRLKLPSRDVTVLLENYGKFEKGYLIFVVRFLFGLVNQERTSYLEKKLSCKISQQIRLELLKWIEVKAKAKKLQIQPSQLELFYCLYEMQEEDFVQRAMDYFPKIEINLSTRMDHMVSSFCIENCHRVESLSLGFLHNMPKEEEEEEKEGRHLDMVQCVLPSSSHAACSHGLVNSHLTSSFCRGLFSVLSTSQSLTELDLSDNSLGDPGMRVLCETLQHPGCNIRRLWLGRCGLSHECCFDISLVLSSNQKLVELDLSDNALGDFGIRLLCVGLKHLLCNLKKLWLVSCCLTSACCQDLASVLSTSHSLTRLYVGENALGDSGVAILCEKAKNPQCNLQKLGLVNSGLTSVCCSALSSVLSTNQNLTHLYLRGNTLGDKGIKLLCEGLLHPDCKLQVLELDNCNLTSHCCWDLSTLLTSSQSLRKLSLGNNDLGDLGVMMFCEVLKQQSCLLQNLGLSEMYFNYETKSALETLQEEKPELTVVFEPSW

As for `O=c1cc(C2CCNCC2)[nH]c2nc(Nc3c4c(cc5c3CCC5)CCC4)nn12`, the IC50 in data set [1] (read-out: IC50) is above 40 µM.
Turning to `Cc1ccn2nc(Nc3c4c(cc5c3CCC5)CCC4)nc2n1`, the IC50 in [1] (read-out: IC50) is above 40 µM.
Same read-out and setting: with `Cc1c[nH]c2nc(Nc3c4c(cc5c3CCC5)CCC4)nn2c1=O` the figure was above 40 µM.
Take `O=c1cc(Cc2ccccn2)[nH]c2nc(Nc3c4c(cc5c3CCC5)CCC4)nn12`: the Papp at 4 h, 10 µM in [2] was below 0.018 ×10⁻⁶ cm/s. Further, in data set [3], the solubility thermodynamic at 24 h came out at 2.4 µM (≈ 0.956 µg/mL). In data set [4], the fraction unbound is 0.002. In addition, the IC50 in data set [5] and in data set [6] was above 40 µM throughout.
Consider `Cc1[nH]c2nc(Nc3c4c(cc5c3CCC5)CCC4)nn2c(=O)c1C#N`, for which the IC50 in data set [1] (read-out: IC50) is above 40 µM.
On the same count and under the same terms, with `O=c1cc(CC2COCCN2)[nH]c2nc(Nc3c4c(cc5c3CCC5)CCC4)nn12` (stereo not drawn) the figure was 5.4 µM.
On the same count and under the same terms, with `CN1CCOC(Cc2cc(=O)n3nc(Nc4c5c(cc6c4CCC6)CCC5)nc3[nH]2)C1` (stereo not drawn) the figure was 8.8 µM; with `O=c1cc(CCc2ccccc2)[nH]c2nc(Nc3c4c(cc5c3CCC5)CCC4)nn12`, 3.4 µM; with `COCCc1cc(=O)n2nc(Nc3c4c(cc5c3CCC5)CCC4)nc2[nH]1`, 2.8 µM.
As for `O=c1cc(CC2CCCCO2)[nH]c2nc(Nc3c4c(cc5c3CCC5)CCC4)nn12` (stereo not drawn), the 50% inhibitory concentration (IC50) is 1.9 µM in data set [1] (read-out: IC50); above 40 µM in [8]; 1.3 µM in data set [9]; above 40 µM in [5]; above 40 µM in data set [6]. Further, the Papp at 4 h, 10 µM in [2] came out at 0.038 ×10⁻⁶ cm/s. Besides, in data set [3], the solubility thermodynamic at 24 h came out at 24 µM (≈ 9.73 µg/mL). Besides, the fraction unbound in [4] was 0.001; in data set [7] it was 0.002.
As to `CN1CCCC(c2cc(=O)n3nc(Nc4c5c(cc6c4CCC6)CCC5)nc3[nH]2)C1` (stereo not drawn), the half-maximal inhibitory concentration (IC50) in data set [1] (read-out: IC50) was determined as 4.9 µM.
On to `Cn1nccc1Cc1cc(=O)n2nc(Nc3c4c(cc5c3CCC5)CCC4)nc2[nH]1`, for which, in data set [1] (read-out: IC50), the IC50 was determined as 2 µM.
As for `COc1c(C)[nH]c2nc(Nc3c4c(cc5c3CCC5)CCC4)nn2c1=O`, in data set [1] (read-out: IC50), the IC50 was above 40 µM.
The same measure, in the same setting: with `O=c1cc(Cc2ccncc2)[nH]c2nc(Nc3c4c(cc5c3CCC5)CCC4)nn12` the figure was 5.8 µM.
The same measure, in the same setting: with `O=c1cc(Cc2cccnc2)[nH]c2nc(Nc3c4c(cc5c3CCC5)CCC4)nn12` the figure was 3.4 µM.
On the same count and under the same terms, with `CN1CCOCC1Cc1cc(=O)n2nc(Nc3c4c(cc5c3CCC5)CCC4)nc2[nH]1` (stereo not drawn) the figure was 6 µM; with `O=c1cc(Cc2ncccn2)[nH]c2nc(Nc3c4c(cc5c3CCC5)CCC4)nn12`, 1.7 µM.
Regarding `N#Cc1ccc(Cc2cc(=O)n3nc(Nc4c5c(cc6c4CCC6)CCC5)nc3[nH]2)cc1`, in [1] (read-out: IC50), the IC50 is 1.6 µM.
For the compound `Cn1cc(Cc2cc(=O)n3nc(Nc4c5c(cc6c4CCC6)CCC5)nc3[nH]2)cn1`, the concentration for half-maximal inhibition (IC50) in data set [1] (read-out: IC50) was 4.9 µM.
On the same count and under the same terms, with `O=c1cc(Cc2cccc(Cl)c2)[nH]c2nc(Nc3c4c(cc5c3CCC5)CCC4)nn12` the figure was 2.8 µM.
With `Cc1cc(=O)n2nc(Nc3c4c(cc5c3CCC5)CCC4)cc2[nH]1`, the inhibition in data set [10] was determined as 57%.
Take `Cc1cc2[nH]c(Nc3c4c(cc5c3CCC5)CCC4)nn2c(=O)n1`: in data set [1] (read-out: IC50), the half-inhibitory concentration (IC50) is above 40 µM.
In the case of `O=c1cc(Cc2ccccc2Cl)[nH]c2nc(Nc3c4c(cc5c3CCC5)CCC4)nn12`, the concentration for half-maximal inhibition (IC50) entry in [1] (pbmc) was “Nd(Insoluble)”.
Turning to `COc1ccc(Cc2cc(=O)n3nc(Nc4c5c(cc6c4CCC6)CCC5)nc3[nH]2)cc1`, in data set [1] (read-out: IC50), the IC50 stood at 3 µM.
Still for that read-out and setting: with `O=c1cc(CC2CCOCC2)[nH]c2nc(Nc3c4c(cc5c3CCC5)CCC4)nn12` the figure was 3.4 µM; with `O=c1cc(CC2CCCCC2)[nH]c2nc(Nc3c4c(cc5c3CCC5)CCC4)nn12`, 4.5 µM.
As to `S=c1cc(Cc2ccccn2)[nH]c2nc(Nc3c4c(cc5c3CCC5)CCC4)nn12`, in [2], the Papp at 4 h, 10 µM was below 0.018 ×10⁻⁶ cm/s. For the same compound, in data set [3], the solubility thermodynamic at 24 h amounted to 1500 µM (≈ 622 µg/mL). The fraction unbound in [4] was 0.019; in [11], 0.015; in [7] it was 0.004. Besides, the IC50 in data set [5] and in data set [6] was above 40 µM each time.
As for `Cc1[nH]c2nc(Nc3c4c(cc5c3CCC5)CCC4)nn2c(=O)c1Cc1ccccc1`, in data set [1] (read-out: IC50), the IC50 was above 40 µM.
Still for that read-out and setting: with `O=c1cc(CN2CCOCC2)[nH]c2nc(Nc3c4c(cc5c3CCC5)CCC4)nn12` the figure was 7.8 µM.
Same read-out and setting: with `O=c1cc(Cc2ccccc2)[nH]c2nc(Nc3c4c(cc5c3CCC5)CCC4)nn12` the figure was 1.8 µM.
For `O=c1cc[nH]c2nc(Nc3c4c(cc5c3CCC5)CCC4)nn12`, in data set [10], the inhibition was determined as 77%.
Take `N#Cc1cccc(Cc2cc(=O)n3nc(Nc4c5c(cc6c4CCC6)CCC5)nc3[nH]2)c1`: the IC50 in data set [1] (read-out: IC50) came to 2.4 µM.
On the same count and under the same terms, with `O=c1cc(Cc2ccc(Cl)cc2)[nH]c2nc(Nc3c4c(cc5c3CCC5)CCC4)nn12` the figure was 10 µM; with `Cc1ccccc1Cc1cc(=O)n2nc(Nc3c4c(cc5c3CCC5)CCC4)nc2[nH]1`, 4 µM.
In the case of `Cn1cncc1Cc1cc(=O)n2nc(Nc3c4c(cc5c3CCC5)CCC4)nc2[nH]1`, in data set [1] (read-out: IC50), the half-inhibitory concentration (IC50) is 16 µM.
The same measure, in the same setting: with `Cn1ccc(Cc2cc(=O)n3nc(Nc4c5c(cc6c4CCC6)CCC5)nc3[nH]2)n1` the figure was 1.8 µM.
For the compound `N#Cc1ccccc1Cc1cc(=O)n2nc(Nc3c4c(cc5c3CCC5)CCC4)nc2[nH]1`, the IC50 result in data set [1] (pbmc) is “Nd(Insoluble)”.
For the compound `O=c1cc(C2CCOCC2)[nH]c2nc(Nc3c4c(cc5c3CCC5)CCC4)nn12`, in data set [1] (read-out: IC50), the IC50 amounted to 6.3 µM.
For `O=c1cc(Cc2ccccc2F)[nH]c2nc(Nc3c4c(cc5c3CCC5)CCC4)nn12`, in data set [1] (read-out: IC50), the IC50 came to 3.7 µM.
Still for that read-out and setting: with `O=c1cc(CC2CCOC2)[nH]c2nc(Nc3c4c(cc5c3CCC5)CCC4)nn12` (stereo not drawn) the figure was 5 µM; with `CCc1cc(=O)n2nc(Nc3c4c(cc5c3CCC5)CCC4)nc2[nH]1`, 8.7 µM.
Still for that read-out and setting: with `CN1CCC(c2cc(=O)n3nc(Nc4c5c(cc6c4CCC6)CCC5)nc3[nH]2)CC1` the figure was above 40 µM.
Same read-out and setting: with `Cc1[nH]c2nc(Nc3c4c(cc5c3CCC5)CCC4)nn2c(=O)c1C` the figure was above 40 µM; with `O=c1cc(C2CCCNC2)[nH]c2nc(Nc3c4c(cc5c3CCC5)CCC4)nn12` (stereo not drawn), above 40 µM.
Turning to `S=c1cc(CC2CCCCO2)[nH]c2nc(Nc3c4c(cc5c3CCC5)CCC4)nn12` (stereo not drawn), in data set [2], the Papp at 4 h, 10 µM is below 0.0004 ×10⁻⁶ cm/s. Further, the solubility thermodynamic at 24 h in [3] came to 730 µM (≈ 308 µg/mL). Besides, the figures for the fraction unbound in data set [4], in data set [11] and in [7] were 0.001, 0.002 and 0.004, respectively. In addition, the IC50 in data set [5] and in data set [6] was above 20 µM in each case.
`CN1CCN(Cc2cc(=O)n3nc(Nc4c5c(cc6c4CCC6)CCC5)nc3[nH]2)CC1`: the IC50 in data set [1] (read-out: IC50) is above 40 µM.
On the same count and under the same terms, with `Cn1cnc(Cc2cc(=O)n3nc(Nc4c5c(cc6c4CCC6)CCC5)nc3[nH]2)c1` the figure was 5.5 µM.
Consider `Cc1cc(=O)n2nc(Nc3c4c(cc5c3CCC5)CCC4)nc2[nH]1`, for which the inhibition in [10] turned out to be 70%.
In the case of `Cc1cc(=O)n2nc(Nc3c4c(cc5c3CCC5)CCC4)nc2n1C`, the IC50 in [1] (read-out: IC50) was above 40 µM.

For orientation: IC50 means the concentration at which inhibition is half-maximal. The inhibition is the share of the control response that was lost under treatment.

(Values after ChEMBL document CHEMBL5143747, “Discovery and Optimization of Triazolopyrimidinone Derivatives as Selective NLRP3 Inflammasome Inhibitors” (ACS Med Chem Lett, 2022).)
